According to patent publication US20120052125A1, “Cholesteryl Sulfate-Containing Composition As A Haemostatic” (DR. SUWELACK SKIN & HEALTH CARE AG, priority 2008, published 2012):

Legend:
[1] = Solubility of cholesteryl sulfate salts; assay type: physicochemical
porcine whole blood = test: Sonoclot analysis (clotting time ACT and clot rate) in recalcified porcine whole blood; assay type: biochemical; conditions: for ACT / clot rate: 360 μl porcine whole blood, recalcified with 20 μl 0.2 M calcium chloride, 1.1 mg carrier, SCS as 4% by wt vesicle solution
Excerpt: The haemostatic effect of cholesteryl sulfate as such was investigated using a Sonoclot®Coagulation & Platelet Function Analyzer by Scienco® Inc with regard to the clotting time (ACT) and clot rate. In this case, the ACT value indicates the time until the onset of the first thickening of the blood, which matches the time required by the system for generating a first blood clot. The clot rate indicates the speed with which the clot solidifies, and is there fore a measure for fibrin formation.
For the investigations presently illustrated, different quantities of cholesteryl sulfate in the form of its sodium salt was dissolved in methanol, and aliquots were transferred into the reaction vessels. By evaporating the methanol, the cholesteryl sulfate was precipitated as a layer on the bottom of the reaction vessel. Then 360 μl of porcine citrate blood were put into the reaction vessel, and 20 μl 0.2 M calcium chloride solution were subsequently added for recalcification. Both the time until coagulation (ACT) as well as the clot formation rate were measured with the Sonoclot Analyzer.
In order to show the enhanced effects in blood clotting of the combination of cholesteryl sulphate as a haemostatic agent and a haemostatic carrier material such as collagen the Sonoclot-Test has been carried out according to example 1.
The test condition and materials were in accordance with example 1.
As a carrier material freeze-dried, milled collagen from the company Dr. Suwelack Skin & Health Care AG (SHC) as well as collagen from bovine tendon from the company Sigma Aldrich have been examined in the Sonoclot-Analyzer and compared to cholesteryl sulphate as well as to a combination of the collagen and cholesteryl sulphate (SCS).
For the examination of the collagen carrier material 1.1 mg carrier material were transferred into the reaction vessels containing 360 μl porcine whole blood. 12.5 μl isosmotic saline solution (NaCl) were subsequently admixed and 20 μl 0.2 M calcium chloride solution were subsequently added for recalcification. Both the time until coagulation (ACT) as well as the clot formation rate were measured with the Sonoclot Analyzer. High clot rate indicates fast fibrin formation and thus fast clot formation.
For the examination of the collagen carrier material in combination with cholesteryl sulphate instead of isosmotic saline solution 12.5 μl of a cholesteryl sulphate vesicle solution containing 4% by wt cholesteryl sulphate is admixed with the carrier material.
For the examination of the cholesteryl sulphate a 4% by wt vesicle solution alone was tested accordingly.
The vesicle solution was prepared as described in example 2, Nr. 2 a).

[2] = Stability of cholesteryl sulfate salts; assay type: physicochemical

| SMILES | water-solubility [1] | ACT (porcine whole blood; Experiment 1) [s] | clot rate (porcine whole blood; Experiment 1) | ACT (porcine whole blood; Experiment 2) [s] | clot rate (porcine whole blood; Experiment 2) | effect on coagulation (porcine whole blood; non-activated system, no pre-incubation) | solubility compared with sodium cholesteryl sulfate ([1]; e.g. in methanol) | stability compared with sodium cholesteryl sulfate [2] |
| --- | --- | --- | --- | --- | --- | --- | --- | --- |
| CC(C)CCC[C@@H](C)[C@H]1CC[C@H]2[C@@H]3CC=C4C[C@@H](OS(=O)(=O)[O-])CC[C@]4(C)[C@H]3CC[C@]12C.[Na+] [12.5 μl SCS, sodium cholesteryl sulfate] | only small water-solubility | 90 | 17 | 81 | 29 | coagulation-promoting effect | – | – |
| CC(C)CCC[C@@H](C)[C@H]1CC[C@H]2[C@@H]3CC=C4C[C@@H](OS(=O)(=O)[O-])CC[C@]4(C)[C@H]3CC[C@]12C.[K+] [potassium cholesteryl sulfate] | only small water-solubility | – | – | – | – | – | less soluble | greater stability |
